Laboratory results reported in patent publication US12378247B2, “Mesylate salt of para-topolin, compositions containing said salt and use thereof” (USTAV EXPERIMENTALNI BOTANIKY AV CR, V. V. I., priority 2020, dated 2025).
Counter-ions that a name gives are not always drawn.

Assays:
[1] = Stability study by XRPD diffraction; assay type: physicochemical; conditions: 25° C., on light, after 30 days
Method: X-ray powder diffraction studies were performed on a Bruker D8 Advance ECO diffractometer with Cu K-alpha radiation and SSD160 detector. Approximately 5 mg of sample was gently compressed on the XRPD sample holder. The sample was then loaded into a Bruker D8-Discover diffractometer in transmission mode and analyzed using the experimental conditions shown below: XRPD measurement conditions
Sample stability was tested at 25° C. for […] on light. […] XRPD of samples were taken after 30 days to investigate any solid form change (any difractogram/pattern change).

[2] = tested on: HOS (human osteosarcoma); assay: Calcein AM cytotoxicity assay, HOS; assay type: cell-based; conditions: 3-day Calcein-AM assay, read-out: Cytotoxic activity IC50
Source text: Because toxic compounds negatively influence metabolic processes of cells, many standard cytotoxicity assays are based on measurement of metabolisation rate of various artificial substrates. Resulting product is then quantified, for example, by means of spectrometry. The assays can be easily modified for use in 96-well plates. For evaluation of cytotoxicity of the […] of this invention, a microtiter assay based on quantification of metabolisation of Calcein AM was used. The assay is widely used in drug screening programs and in chemosensitivity testing. In live cells, Calcein AM is enzymatically hydrolysed and accumulation of the resulting calcein is manifested by green fluorescence. […]
Approximately 10,000 cells in 80 μL of medium were seeded into 96-well microtitre plates. […] The fluorescence of free calcein was then quantified using a Fluoroscan Ascent fluorometer (Microsystems), and the percentage of surviving cells in each well was calculated by dividing the OD obtained from each cell with exposed cells by the mean OD obtained from control wells×100%. […]

Structure (SMILES)	Solid-state stability (structure, color, XRPD pattern change) ([1]; listed as crystalline para-topolin mesylate salt)	Solid-state stability (structure, color, XRPD pattern change) ([1]; listed as para-topolin mesylate crystalline salt)	IC50 [2] [µM]
Oc1ccc(CNc2ncnc3nc[nH]c23)cc1 [para-topolin mesylate, 6-(4-hydroxybenzylamino) purine (para-topolin) mesylate (methylsulphonate)]	No structure nor color change	no structural pattern changes detected	–
Oc1ccc(CNc2ncnc3nc[nH]c23)cc1 [para-topolin, 6-(4-Hydroxybenzylamino) purine]	–	–	> 167
